Seven molecules from patent US4323567A, “Arylmalonamido-1-oxadethiacephalosporins” (priority 1976, dated 1982) can be followed below.

≈ marks a conversion by molar mass, not a printed value. Where two headings read alike, the source gives them in different places. Some results are limits rather than exact numbers.

Common to all, as to assay: Minimal inhibitory concentration, nutrient agar plate
The test system of assay [1] is Serratia marsescens 13880. The class given is cell-based.
For assay [2], the system named is Pseudomonas aeruginosa Denken. The class given is cell-based.
Assay [3] relates to Ps. aeruginosa 24. The class given is cell-based, Pseudomonas aeruginosa.
The test system of assay [4] is Proteus mirabilis PR-4. Type of assay: cell-based.
For assay [5], the system named is E. coli 73. The class given is cell-based, Escherichia coli.
Assay [6] has as its system P. vulgaris No. 3. The class given is cell-based. The note with it: Proteus vulgaris.
Assay [7] deals with P. morganii No. 9. Type of assay: cell-based, Proteus morganii. The note with it: Morganella morganii.
Assay [8] has as its system Enterobacter cloacae 233. Type of assay: cell-based.
For assay [9], the system named is Klebsiella sp. 363. The class given is cell-based.
Assay [10] has as its system Klebsiella pneumoniae. The class given is cell-based.
For assay [11], the system named is E. coli 377. The class given is cell-based, Escherichia coli.
Assay [12] deals with Escherichia coli H. Type of assay: cell-based.
Assay [13] relates to P. vulgaris CN-329. The class given is cell-based. The note with it: Proteus vulgaris.
Assay [14] deals with E. coli JC-2. Type of assay: cell-based. The note with it: Escherichia coli.
For assay [15], the system named is Ps. aeruginosa 25619. The class given is cell-based, Pseudomonas aeruginosa.
The mark [16] stands for this setting: pH 7, read-out: Minimal inhibitory concentration.
The mark [17] stands for this setting: Serratia, 13880, as sodium salt, inoculum size 10^8, pH 7.0, read-out: Minimal inhibitory concentration.
[18] abbreviates: as sodium salt, inoculum size 10^8, pH 7.0, read-out: Minimal inhibitory concentration.
Where [19] appears, read: Pseudomonas aeruginosa, 24, as sodium salt, inoculum size 10^8, pH 7.0, read-out: Minimal inhibitory concentration.
Where [20] appears, read: PR4, as sodium salt, inoculum size 10^8, pH 7.0, read-out: Minimal inhibitory concentration.
Where [21] appears, read: Escherichia coli, 73, as sodium salt, inoculum size 10^8, pH 7.0, read-out: Minimal inhibitory concentration.
[22] abbreviates: NO.3, as sodium salt, inoculum size 10^8, pH 7.0, read-out: Minimal inhibitory concentration.
[23] abbreviates: NO.9, as sodium salt, inoculum size 10^8, pH 7.0, read-out: Minimal inhibitory concentration.
[24] abbreviates: Enterobacter cloacae, 233, as sodium salt, inoculum size 10^8, pH 7.0, read-out: Minimal inhibitory concentration.
[25] abbreviates: SP.363, as sodium salt, inoculum size 10^8, pH 7.0, read-out: Minimal inhibitory concentration.
Where [26] appears, read: Escherichia coli, 377, as sodium salt, inoculum size 10^8, pH 7.0, read-out: Minimal inhibitory concentration.
Setting [27] is: CN329, as sodium salt, inoculum size 10^8, pH 7.0, read-out: Minimal inhibitory concentration.
Where [28] appears, read: JC2, as sodium salt, inoculum size 10^8, pH 7.0, read-out: Minimal inhibitory concentration.
The mark [29] stands for this setting: Pseudomonas aeruginosa, 25619, as sodium salt, inoculum size 10^8, pH 7.0, read-out: Minimal inhibitory concentration.
Where [30] appears, read: ester, in the presence of 5% horse serum, sodium salt, inoculum size 10^8, pH 7.0, read-out: Minimal inhibitory concentration.

As to `CO[C@@]1(NC(=O)C(C(=O)O)c2ccc(OC(=O)NC(N)=O)cc2)C(=O)N2C(C(=O)O)=C(CSc3nnnn3C)CO[C@@H]21` (stereo partly drawn) [III-27, 7β-(α-p-ureidocarbonyloxyphenyl-α-carboxyacetamido)-7α-methoxy-3-(1-methyltetrazol-5-yl)thiomethyl--oxadethia-3-cephem-4-carboxylic acid], the MIC in assay [1] (Serratia, 13880, pH 7, read-out: Minimal inhibitory concentration) was 3.13 µg/mL (≈ 5.16 µM); in assay [2] (setting [16]), above 100 µg/mL; in [3] (Pseudomonas aeruginosa, 24, pH 7, read-out: Minimal inhibitory concentration) it was 50 µg/mL (≈ 82.4 µM); in assay [4] (PR4, pH 7, read-out: Minimal inhibitory concentration), 0.2 µg/mL (≈ 0.33 µM); in assay [5] (Escherichia coli, 73, pH 7, read-out: Minimal inhibitory concentration), 0.78 µg/mL (≈ 1.29 µM); in assay [6] (NO.3, pH 7, read-out: Minimal inhibitory concentration), 0.39 µg/mL (≈ 0.643 µM). Also, the MIC in assay [7] (NO.9, pH 7, read-out: Minimal inhibitory concentration) worked out at 0.2 µg/mL (≈ 0.33 µM); in assay [8] (Enterobacter cloacae, 233, pH 7, read-out: Minimal inhibitory concentration) it was 0.78 µg/mL (≈ 1.29 µM); in assay [9] (SP.363, pH 7, read-out: Minimal inhibitory concentration), 0.2 µg/mL (≈ 0.33 µM); in assay [10] (setting [16]), 0.39 µg/mL (≈ 0.643 µM); in [11] (Escherichia coli, 377, pH 7, read-out: Minimal inhibitory concentration), 0.78 µg/mL (≈ 1.29 µM); in assay [12] (setting [16]), 0.05 µg/mL (≈ 0.0824 µM). In addition, the MIC in [13] (CN329, pH 7, read-out: Minimal inhibitory concentration) worked out at 0.2 µg/mL (≈ 0.33 µM); in assay [14] (JC2, pH 7, read-out: Minimal inhibitory concentration), 0.2 µg/mL (≈ 0.33 µM); in [15] (Pseudomonas aeruginosa, 25619, pH 7, read-out: Minimal inhibitory concentration), 12.5 µg/mL (≈ 20.6 µM).

As for `CO[C@@]1(NC(=O)C(C(=O)O)c2ccccc2)C(=O)N2C(C(=O)O)=C(CSc3nnnn3C)CO[C@@H]21` (stereo partly drawn) [III-13, 7β-(α-carboxy-α-phenylacetamido)-7α-methoxy-3-(1-methyltetrazol-5-yl)thiomethyl-1-oxadethia-3-cephem-4-carboxylic acid], the MIC was determined as 0.39 µg/mL in assay [1] (setting [17]); 100 µg/mL in assay [2] (setting [18]); 50 µg/mL in assay [3] (setting [19]); 0.2 µg/mL in assay [4] (setting [20]); 0.39 µg/mL in [5] (setting [21]); 0.2 µg/mL in assay [6] (setting [22]). Also, the MIC in assay [7] (setting [23]) was 0.1 µg/mL; in assay [8] (setting [24]), 0.2 µg/mL; in assay [9] (setting [25]), 0.05 µg/mL; in assay [10] (setting [18]) it was 0.1 µg/mL; in assay [11] (setting [26]), 0.2 µg/mL; in [12] (setting [18]), 0.025 µg/mL. The results for the MIC in [13] (setting [27]), in assay [14] (setting [28]) and in assay [15] (setting [29]) were 0.1 µg/mL, 0.01 µg/mL and 12.5 µg/mL, respectively.

As to `CO[C@@]1(NC(=O)C(C(=O)O)c2ccc(OC(C)=O)cc2)C(=O)N2C(C(=O)O)=C(CSc3nnnn3C)CO[C@@H]21` (stereo partly drawn) [III-14, 7β-(α-carboxy-α-p-acetoxyphenylacetamido)-7α-methoxy-3-(1-methyltetrazol-5-yl)thiomethyl-1-oxadethia-3-cephem-4-carboxylic acid], the MIC in assay [2] (setting [18]) is above 100 µg/mL; in assay [3] (setting [19]), 100 µg/mL; in assay [4] (setting [20]), 0.2 µg/mL; in [5] (setting [21]), 1.56 µg/mL; in [6] (setting [22]), 0.39 µg/mL; in assay [7] (setting [23]), 0.39 µg/mL. Moreover, the MIC was found to be 0.78 µg/mL in assay [8] (setting [24]); 0.78 µg/mL in assay [9] (setting [25]); 0.39 µg/mL in [10] (setting [18]); 1.56 µg/mL in assay [11] (setting [26]); 0.2 µg/mL in [12] (setting [18]); 0.2 µg/mL in assay [13] (setting [27]). The MIC in assay [14] (setting [28]) stood at 0.39 µg/mL; in [15] (setting [29]), 25 µg/mL.

As for `CO[C@@]1(NC(=O)C(C(=O)O)c2ccc(O)cc2)C(=O)N2C(C(=O)O)=C(CSc3nnnn3C)CO[C@@H]21` (stereo partly drawn) [III-15, 7β-(α-carboxy-α-p-hydroxyphenylacetamido)-7α-methoxy-3-(1-methyltetrazol-5-yl)thiomethyl-1-oxadethia-3-cephem-4-carboxylic acid], the MIC is 1.56 µg/mL in [1] (setting [17]); 100 µg/mL in assay [2] (setting [18]); 50 µg/mL in assay [3] (setting [19]); 0.39 µg/mL in assay [4] (setting [20]); 0.78 µg/mL in assay [5] (setting [21]); 0.39 µg/mL in assay [6] (setting [22]). The MIC in [7] (setting [23]) was 0.39 µg/mL; in [9] (setting [25]) it was 0.1 µg/mL; in assay [10] (setting [18]) it was 0.2 µg/mL; in assay [11] (setting [26]), 0.39 µg/mL; in assay [12] (setting [18]), 0.1 µg/mL; in assay [13] (setting [27]) it was 0.39 µg/mL. For the same molecule, the MIC in assay [14] (setting [28]) stood at 0.02 µg/mL; in assay [15] (setting [29]), 6.25 µg/mL.

For the molecule `Cn1nnnc1SCC1=C(C(=O)[O-])N2C(=O)[C@@H](NC(=O)C(C(=O)Oc3ccc4c(c3)CCC4)c3ccccc3)[C@H]2OC1.[Na+]` (stereo partly drawn) [Example III-2, sodium 7β-[α-(5-indanyl)oxycarbonyl-α-phenylacetamido]-3-(1-methyltetrazol-5-yl)thiomethyl-1-oxadethia-3-cephem-4-carboxylate], the MIC is 0.78 µg/mL in [1] (Serratia, 13880, ester, in the presence of 5% horse serum, sodium salt, inoculum size 10^8, pH 7.0, read-out: Minimal inhibitory concentration); above 100 µg/mL in assay [2] (setting [30]); above 100 µg/mL in assay [3] (Pseudomonas aeruginosa, 24, ester, in the presence of 5% horse serum, sodium salt, inoculum size 10^8, pH 7.0, read-out: Minimal inhibitory concentration); 0.39 µg/mL in assay [4] (PR4, ester, in the presence of 5% horse serum, sodium salt, inoculum size 10^8, pH 7.0, read-out: Minimal inhibitory concentration); above 100 µg/mL in [5] (Escherichia coli, 73, ester, in the presence of 5% horse serum, sodium salt, inoculum size 10^8, pH 7.0, read-out: Minimal inhibitory concentration); 0.39 µg/mL in [7] (NO.9, ester, in the presence of 5% horse serum, sodium salt, inoculum size 10^8, pH 7.0, read-out: Minimal inhibitory concentration). The MIC was 0.39 µg/mL in assay [8] (Enterobacter cloacae, 233, ester, in the presence of 5% horse serum, sodium salt, inoculum size 10^8, pH 7.0, read-out: Minimal inhibitory concentration); above 100 µg/mL in assay [9] (SP.363, ester, in the presence of 5% horse serum, sodium salt, inoculum size 10^8, pH 7.0, read-out: Minimal inhibitory concentration); 0.2 µg/mL in assay [10] (setting [30]); 0.2 µg/mL in assay [11] (Escherichia coli, 377, ester, in the presence of 5% horse serum, sodium salt, inoculum size 10^8, pH 7.0, read-out: Minimal inhibitory concentration); 0.1 µg/mL in assay [12] (setting [30]); 50 µg/mL in assay [13] (CN329, ester, in the presence of 5% horse serum, sodium salt, inoculum size 10^8, pH 7.0, read-out: Minimal inhibitory concentration). Also, the MIC in [14] (JC2, ester, in the presence of 5% horse serum, sodium salt, inoculum size 10^8, pH 7.0, read-out: Minimal inhibitory concentration) is 0.2 µg/mL; in assay [15] (Pseudomonas aeruginosa, 25619, ester, in the presence of 5% horse serum, sodium salt, inoculum size 10^8, pH 7.0, read-out: Minimal inhibitory concentration), 6.25 µg/mL.

In the case of `CO[C@@]1(NC(=O)C(C(=O)O)c2cccs2)C(=O)N2C(C(=O)O)=C(CSc3nnnn3C)CO[C@@H]21` (stereo partly drawn) [III-23, 7β-[α-carboxy-α-(2-theinyl)acetamido]-7α-methoxy-3-(1-methyltetrazol-5-yl)thiomethyl-1-oxadethia-3-cephem-4-carboxylic acid], the MIC in assay [1] (setting [17]) is 0.39 µg/mL; in assay [2] (setting [18]) it was 100 µg/mL; in assay [3] (setting [19]), 50 µg/mL; in assay [4] (setting [20]), 0.1 µg/mL; in assay [5] (setting [21]), 0.2 µg/mL; in assay [7] (setting [23]), 0.1 µg/mL. The MIC is 0.2 µg/mL in assay [8] (setting [24]); 0.1 µg/mL in assay [9] (setting [25]); 0.05 µg/mL in assay [10] (setting [18]); 0.39 µg/mL in assay [11] (setting [26]); 0.025 µg/mL in assay [12] (setting [18]); 0.1 µg/mL in assay [13] (setting [27]). Further, the MIC in [14] (setting [28]) was found to be 0.05 µg/mL; in [15] (setting [29]) it was 12.5 µg/mL.

`Cn1nnnc1SCC1=C(C(=O)O)N2C(=O)[C@@H](NC(=O)C(O)c3ccccc3)[C@H]2OC1` (stereo partly drawn) [(4), 7β-mandelamido3-(1-methyltetrazol-5-yl)thiomethyl-1-oxadethia-3-cephm-4-carboxylic acid, reference compound]: the MIC was 100 µg/mL in [1] (setting [17]); above 100 µg/mL in assay [2] (setting [18]); above 100 µg/mL in assay [3] (setting [19]); 0.2 µg/mL in assay [4] (setting [20]); above 100 µg/mL in assay [5] (setting [21]); 100 µg/mL in assay [7] (setting [23]). For the same molecule, the MIC was above 100 µg/mL in [8] (setting [24]); above 100 µg/mL in [9] (setting [25]); 0.2 µg/mL in assay [10] (setting [18]); 50 µg/mL in [11] (setting [26]); 0.1 µg/mL in assay [12] (setting [18]); above 100 µg/mL in assay [13] (setting [27]). The MIC is 0.2 µg/mL in assay [14] (setting [28]) and above 100 µg/mL in [15] (setting [29]).
